Source: US20110308790A1, “IN SITU METHANOGENESIS MODELING AND RISK ANALYSIS” (CONOCOPHILLIPS COMPANY, priority 2010, published 2011)

Test system: microbes in production water
Assay: biomass control with NaOCl solution (viable count CFU/mL)
Format: cell-based
Settings: 0.03-0.6% NaOCl, 23 hours, presence or absence of oxygen
Description: The procedures to test the effectiveness, and the minimum dose, of NaOCl that is required to eliminate biomass in the injection line and injection well-bore during the field biogasification process are the following. The initial population of microbes in production water, placed in tubes that were to be incubated under defined oxygen saturation conditions was determined either by direct counting of cells using a Petroff Hausser bacterial counting chamber, or by counting the colony forming units (CFU/mL) of microorganisms that developed on specialized media after incubation for specific period. The population of microbes that were present in the incubated tubes (also with added carbon source-coal and nutrient additions) was determined over time after methane was detected in the headspace of the tubes. Thereafter, the same tubes were amended with different concentrations (0.6%, 0.3%, 0.15%, 0.1%, 0.075%, 0.06%, 0.03% and 0%) of NaOCl solution followed by incubation of the tubes for 23 hours to allow the biomolecule-oxidizing action of the solution to come to appreciable completion. Immediately after this, the population of viable microbes (i.e. CFU/mL) in the NaOCl-amended tubes was determined by plating a specific volume of the culture on defined solid medium.

With `OCl` [NaOCl, sodium hypochlorite] the “inactivation of microorganisms (viable CFU/mL)” value was “effective in inactiving microorganisms”.
